In ChEMBL document CHEMBL4371004, “A-C Estrogens as Potent and Selective Estrogen Receptor-Beta Agonists (SERBAs) to Enhance Memory Consolidation under Low-Estrogen Conditions” (J Med Chem, 2018):
The source made the active and inactive calls. No cut-off for these calls is given here.

Columns and labels:
Estrogen receptor [1] = molecular target: T1, Estrogen receptor (Homo sapiens, UniProt P03372)
T1 sequence (P03372 whole entry): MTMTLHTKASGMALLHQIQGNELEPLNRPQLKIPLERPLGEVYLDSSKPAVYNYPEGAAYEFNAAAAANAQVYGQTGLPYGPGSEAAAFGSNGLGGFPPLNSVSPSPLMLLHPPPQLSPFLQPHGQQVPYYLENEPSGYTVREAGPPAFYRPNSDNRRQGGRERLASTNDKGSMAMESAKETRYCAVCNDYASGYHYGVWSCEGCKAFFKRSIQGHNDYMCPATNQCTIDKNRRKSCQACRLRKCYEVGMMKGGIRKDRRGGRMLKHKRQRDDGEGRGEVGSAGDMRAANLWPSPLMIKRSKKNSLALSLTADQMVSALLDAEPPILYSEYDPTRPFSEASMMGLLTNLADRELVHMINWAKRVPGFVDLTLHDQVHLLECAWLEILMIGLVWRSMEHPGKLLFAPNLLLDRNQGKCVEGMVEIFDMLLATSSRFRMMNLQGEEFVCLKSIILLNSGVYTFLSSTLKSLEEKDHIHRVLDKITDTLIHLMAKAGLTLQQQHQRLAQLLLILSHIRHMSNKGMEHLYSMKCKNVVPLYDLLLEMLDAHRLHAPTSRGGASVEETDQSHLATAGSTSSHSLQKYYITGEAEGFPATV

[2] = molecular target: T2, Thyroid hormone receptor beta (Homo sapiens) (UniProt P10828); test: Agonist activity at GAL4 DNA binding domain fused thyroid hormone receptor beta (unknown origin) at 0.25 to 25 uM by FRET-based assay
T2 sequence (whole entry): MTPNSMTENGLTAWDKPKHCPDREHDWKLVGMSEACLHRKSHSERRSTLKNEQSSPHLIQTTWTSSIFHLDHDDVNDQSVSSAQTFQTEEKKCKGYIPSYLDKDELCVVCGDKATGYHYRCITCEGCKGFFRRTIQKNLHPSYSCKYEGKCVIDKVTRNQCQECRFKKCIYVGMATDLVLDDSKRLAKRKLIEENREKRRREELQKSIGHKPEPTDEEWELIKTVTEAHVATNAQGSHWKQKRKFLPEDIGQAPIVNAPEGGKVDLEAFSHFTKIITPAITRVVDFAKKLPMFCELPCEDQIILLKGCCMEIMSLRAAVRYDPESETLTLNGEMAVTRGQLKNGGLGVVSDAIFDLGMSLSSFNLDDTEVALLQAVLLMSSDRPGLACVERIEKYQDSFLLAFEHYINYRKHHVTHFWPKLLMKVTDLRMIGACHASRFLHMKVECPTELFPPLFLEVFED

[3] = molecular target: T3, Mineralocorticoid receptor (Homo sapiens) (UniProt P08235); test: Agonist activity at GAL4 DNA binding domain fused mineralocorticoid receptor ligand binding domain (unknown origin) at 0.25 to 25 uM by FRET-based assay
T3 sequence (whole entry): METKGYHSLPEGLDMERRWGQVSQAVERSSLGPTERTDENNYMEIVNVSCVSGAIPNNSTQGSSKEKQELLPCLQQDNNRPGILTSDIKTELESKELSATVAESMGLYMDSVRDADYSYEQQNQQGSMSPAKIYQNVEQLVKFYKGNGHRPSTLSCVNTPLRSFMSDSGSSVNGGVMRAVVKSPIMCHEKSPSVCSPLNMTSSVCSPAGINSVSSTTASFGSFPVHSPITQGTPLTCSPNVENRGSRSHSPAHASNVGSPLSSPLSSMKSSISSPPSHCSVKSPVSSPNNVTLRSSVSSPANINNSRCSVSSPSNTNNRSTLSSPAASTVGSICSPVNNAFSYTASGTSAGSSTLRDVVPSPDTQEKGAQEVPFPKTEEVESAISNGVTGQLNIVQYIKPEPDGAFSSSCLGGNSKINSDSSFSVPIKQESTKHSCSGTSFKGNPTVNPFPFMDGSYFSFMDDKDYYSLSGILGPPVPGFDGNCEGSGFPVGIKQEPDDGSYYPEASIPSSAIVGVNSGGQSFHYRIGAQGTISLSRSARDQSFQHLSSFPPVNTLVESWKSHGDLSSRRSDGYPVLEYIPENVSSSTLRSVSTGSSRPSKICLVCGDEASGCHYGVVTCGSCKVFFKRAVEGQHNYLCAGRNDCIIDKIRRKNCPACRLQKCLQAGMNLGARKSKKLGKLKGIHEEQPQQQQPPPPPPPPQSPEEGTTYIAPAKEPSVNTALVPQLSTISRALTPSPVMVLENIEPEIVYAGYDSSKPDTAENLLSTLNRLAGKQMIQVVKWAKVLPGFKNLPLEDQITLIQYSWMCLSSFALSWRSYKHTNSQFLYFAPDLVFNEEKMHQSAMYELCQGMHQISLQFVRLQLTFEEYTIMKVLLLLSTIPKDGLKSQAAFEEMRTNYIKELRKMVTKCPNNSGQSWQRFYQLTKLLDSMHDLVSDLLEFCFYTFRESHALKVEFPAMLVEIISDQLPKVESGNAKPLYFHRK

Mus musculus [4] = test: Memory enhancement effect in C57BL/6 mouse assessed as time spent with moved object at 1 ng administered as dorsal hippocampal infusion by novel object recognition test; assay type: functional
Mus musculus [5] = test: Memory enhancement effect in C57BL/6 mouse assessed as time spent with novel object at 5 mg/kg, po administered via gavage by novel object recognition test; assay type: functional
Mus musculus [6] = test: Memory enhancement effect in C57BL/6 mouse assessed as time spent with moved object at 5 mg/kg, ip by novel object recognition test; assay type: functional
Estrogen receptor [7] = molecular target: T1, Estrogen receptor; remark: listed apart in the source
Estrogen receptor [8] = molecular target: T1, Estrogen receptor; test: cell-based
Description: Agonist activity at GAL4 DNA binding domain fused full-length chimeric estrogen receptor alpha (unknown origin) by FRET-based assay

Cytochrome P450 2D6 = Cytochrome P450 2D6 (Homo sapiens, UniProt P10635); test: Inhibition of human recombinant CYP2D6 up to 100 uM preincubated for 10 mins followed by NADPH addition and measured after 10 to 30 mins by P450-Glo luminescence assay; assay type: ADME; details: recombinant enzyme
Sequence of Cytochrome P450 2D6 (P10635 whole entry): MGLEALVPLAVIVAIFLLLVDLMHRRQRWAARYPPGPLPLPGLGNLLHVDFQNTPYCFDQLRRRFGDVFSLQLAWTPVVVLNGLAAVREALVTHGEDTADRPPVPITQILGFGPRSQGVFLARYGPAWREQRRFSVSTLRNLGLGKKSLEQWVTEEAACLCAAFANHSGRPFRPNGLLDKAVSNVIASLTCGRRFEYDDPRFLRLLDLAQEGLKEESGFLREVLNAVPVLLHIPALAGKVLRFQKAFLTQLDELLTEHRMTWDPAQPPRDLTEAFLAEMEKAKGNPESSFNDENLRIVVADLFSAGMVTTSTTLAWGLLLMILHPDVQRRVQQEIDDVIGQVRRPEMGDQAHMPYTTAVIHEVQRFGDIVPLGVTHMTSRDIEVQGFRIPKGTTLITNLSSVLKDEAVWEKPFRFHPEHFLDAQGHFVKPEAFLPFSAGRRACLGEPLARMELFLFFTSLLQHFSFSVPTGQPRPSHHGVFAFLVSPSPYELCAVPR

Mus musculus [9] = test: Memory enhancement effect in C57BL/6 mouse assessed as time spent with moved object at 0.5 mg/kg, po administered via gavage by object recognition test; assay type: functional

OC[C@H]1CC[C@H](c2ccc(O)cc2)CC1
EC50 (Estrogen receptor [1]): > 10000 nM
Activity [2]: inactive
Activity [3]: inactive
Time (Mus musculus [4]): 3.4 s
Time (Mus musculus [5]): 2.36 s
Time (Mus musculus [6]): 2.78 s
IC50 (Estrogen receptor [7]): 2940 nM
EC50 (Estrogen receptor [8]): 930 nM
inhibition (INH) (Cytochrome P450 2D6): Not Active
Time (Mus musculus [9]): 3.65 s
